Experiment [1] concerns the target Prostaglandin G/H synthase 1 (Ovis aries) (UniProt P05979). The experiment can be described thus: Inhibition of COX1 at 100 uM.
The target is the same in experiment [2]. The experiment can be described thus: Inhibition of COX1.
For experiment [3] the target is unchanged. Put plainly: Inhibition of COX1 at 200 uM.

Prostaglandin G/H synthase 1 (Ovis aries), sequence (P05979 whole entry, looked up): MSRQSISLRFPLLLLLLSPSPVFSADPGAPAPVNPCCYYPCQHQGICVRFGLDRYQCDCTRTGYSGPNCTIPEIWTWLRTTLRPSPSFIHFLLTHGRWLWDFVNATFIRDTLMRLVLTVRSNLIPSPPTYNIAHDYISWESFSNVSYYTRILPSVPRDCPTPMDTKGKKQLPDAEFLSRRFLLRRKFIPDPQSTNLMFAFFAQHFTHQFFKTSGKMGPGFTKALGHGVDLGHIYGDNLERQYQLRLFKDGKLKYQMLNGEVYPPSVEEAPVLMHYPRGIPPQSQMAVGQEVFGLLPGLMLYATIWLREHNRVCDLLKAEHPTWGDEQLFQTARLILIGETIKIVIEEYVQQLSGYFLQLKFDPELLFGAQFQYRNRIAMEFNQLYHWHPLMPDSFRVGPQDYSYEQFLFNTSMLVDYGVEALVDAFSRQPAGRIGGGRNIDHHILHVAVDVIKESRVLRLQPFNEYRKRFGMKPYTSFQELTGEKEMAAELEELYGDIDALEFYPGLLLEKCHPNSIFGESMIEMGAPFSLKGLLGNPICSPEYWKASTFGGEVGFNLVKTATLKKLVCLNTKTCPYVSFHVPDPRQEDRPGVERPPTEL

For orientation: inhibition means how much of the control response was suppressed. A low value points to a weak effect. As a reminder, the IC50 is the midpoint of a concentration-inhibition curve. Regarding `CC1=C/C(=C2\C(=O)N(c3ccccc3)N=C2C)OC(=O)N1c1ccccc1`, the inhibition in experiment [1] worked out at 61.8%. It took 79.4 µM to reach half-maximal inhibition in experiment [2] (IC50).

In experiment [1], `CC1=C/C(=C2\C(=O)N(c3ccccc3)N=C2C)OC(=O)N1c1ccc(C)cc1` had an inhibition of 54.6%. Also, in experiment [2], the midpoint of inhibition, the IC50, lay at 91.2 µM.

The compound `CCCN1C(=O)O/C(=C2/C(=O)N(c3ccccc3)N=C2C)C=C1C` gave an inhibition in experiment [1] of 16%.

`CCN1C(=O)O/C(=C2/C(=O)N(c3ccccc3)N=C2C)C=C1C`: the inhibition came to 0% in experiment [1] and 19.9% in experiment [3].

In the case of `COc1ccc(N2C(=O)O/C(=C3/C(=O)N(c4ccccc4)N=C3C)C=C2C)cc1`, in experiment [1], the inhibition was found to be 22.6%. Moreover, half-maximal inhibition in experiment [2] (IC50) was put at 269 µM.

`CC1=C/C(=C2\C(=O)N(c3ccccc3)N=C2C)OC(=O)N1c1ccc(Br)cc1` returned an inhibition in experiment [1] of 15%.

Regarding `CC1=C/C(=C2\C(=O)N(c3ccccc3)N=C2C)OC(=O)N1c1ccc(Cl)cc1`, the inhibition in experiment [1] is 21.9%. The same compound came in with an IC50 in experiment [2] of 251 µM.

For the compound `CC1=C/C(=C2\C(=O)N(c3ccccc3)N=C2C)OC(=O)N1Cc1ccccc1`, in experiment [1], the inhibition worked out at 18%.

The values are drawn from ChEMBL document CHEMBL1143947, “Synthesis and in silico biological activity evaluation of new N-substituted pyrazolo-oxazin-2-one systems” (Bioorg Med Chem, 2008).
